From US20030134901A1, “Lipoxin compounds and their use in treating cell proliferative disorders” (priority 1993, published 2003)

System: PMA-treated HL-60 cells
Test: Lipoxin metabolism / bio-half-life assay with phorbol ester-treated HL-60 cells
Format: in vitro ADME, human
Description: HL-60 cells were purchased from American Type Culture Collection (Rockville, Md.), and other cell culture reagents were from GIBCO (Grand Island, N.Y.). Versene (EDTA) was from Whittaker Bioproducts (Walkersville, Md.). Synthetic 11,12-acetylenic LXA4 methyl ester and LXs were from Cascade Biochemical (Reading, U.K.). 15(S)-15-m-PGE1, PGE1, and 5-HETE were from Cayman Chemical Co. (Ann Arbor, Mich.). [11,12-^3H]LXA4 was prepared from 11,12-acetylenic LXA4 using Lindlar catalyst as a custom tritiation (NET-259, lot 0 2793-275, New England Nuclear, Boston, Mass.). Tritiated products were isolated using RP-HPLC (Fiore et al. (1992) J. Biol. Chem. 267:16168; Serhan, C. N. (1990) Meth. Enzymol. 187:167). Methoxyamine and NAD were from Sigma Chemical Company (St. Louis, Mo.). Manganese dioxide and Adams reagent were from Aldrich Chemical Co. (Milwaukee, Wis.).
Human PMN were obtained from healthy volunteers by gradient centrifugation of heparinized fresh venous blood (Böyum, A. ([…]) Scand. J. Clin. Lab. Invest. 21:77). HL-60 cells were seeded in RPMI supplemented with penicillin (100 U/ml), streptomycin (100 μ/ml), fetal bovine serum (10%) (Hyclone, Logan, Utah) and incubated (37° C. with 5% CO2 atmosphere) in plastic 250 ml flasks. Individual flasks containing […] HL-60 cells/ml were incubated in the presence or absence of phorbol 12-myristate 13-acetate (PMA) (10 or 16 nM, 24-27 h) and adherence was monitored for induction of macrophage-like phenotype as in Collins, S. J. (1987) Blood 70:1233. […]
Incubations with eicosanoids were stopped with cold methanol containing either PGB2 or 5-HETE as internal standards (5-HETE was used when 15-oxo-ETE was quantified). […] Formation of 15-oxo-ETE by 100,000 g supernatants (cf. Agins, A. P. et al. (1987) Agents Actions 21:397; Xun, C-Q. et al.(1991) Biochem. J. 279:553; and Sok, D-E. et al. (1988) Biochem. Biophys. Res. Commun. 156:524) was quantified after RP-HPLC using an ODS column (4.6 mm×25 cm) eluted with methanol/H2O/acetic acid (70:30:0.01, v/v/v) monitored at 280 nm with a flow rate of 1 ml/min. […] On-line spectra were recorded using a diode array detector (Hewlett-Packard 1040M series II) equipped with HPLC^3D ChemStation software (DOS series). […]
The “bio-half-life” of compounds 1-8 was assessed using phorbol ester-treated human promyelocytic leukemia (HL-60) cells as described in Example 2. […]

CCCCC[C@H](O)/C=C/C=C\C=C\C=C\[C@@H](O)[C@@H](O)CCCC(=O)O [LXA4, (5S, 6R, 15S)-trihydroxy-7E, 9E, 11Z, 13E-eicosatetraenoic acid]
LXA4 metabolized (PMA-treated HL-60 cells, within the first 60 s of exposure): > 70% | LXA4 converted (within five minutes of addition to the cell incubation): more than 95%
